Test results from patent US8183005B1, “Pharmaceutical agents for treating HCV infections” (priority 2004, dated 2012).

How the values were obtained:
Format in all cases: cell-based
in vitro = details: human, Huh-3-1 replicon cells, three days, Cell Counting Kit-8; read-out: Cytotoxicity CC50
Description: (§1) Firefly luciferase HCV replicon cells (Huh-3-1) suspended in Dulbecco's MEM (Gibco Cat. No. 10569) containing 5% fetal bovine serum (Hyclone Cat. No. SH30071.03) were plated onto a 96-well plate at 5000 cells/well, and cultured overnight under 5% CO2 at 37° C. Approximately 20 hours later, fumonisin B1 was added to a final concentration of 1.37 μM to 1000 μM by carrying out a sequential three-fold dilution, and the cells were then cultured for three more days. The assay was carried out by preparing two types of assay plates: one an opaque white plate and the other a transparent plate. After culturing, the white plate was subjected to the Steady-Glo Luciferase Assay System (Promega Cat. No. E2520). More specifically, 100 μL of reagent was added to each well, mixed three to four times using a pipette, and then stood for five minutes before luminescence was measured using 1450 MicroBeta TRILUX (WALLAC). IC50 (50% inhibitory concentration) of a pharmaceutical agent was calculated by subtracting the value obtained without adding the cells as the background value from all of the values, and then defining the level of inhibition without addition of the pharmaceutical agent as 0%. A Cell Counting Kit-8 (DOJINDO Laboratories, Cat. No. 341-07761) was used for the cytotoxicity assays. 10 μL of reagent was added to each well, mixed three to four times using a pipette, and then stood for approximately 30 minutes; measurements were performed when OD450 nm reached approximately 1.0. IC50 (50% inhibitory concentration) of a pharmaceutical agent was calculated by subtracting the value obtained without adding the cells as the background value from all of the values, and then defining the level of inhibition without addition of the pharmaceutical agent as 0%.
(§2) Based on the results of Example 5, the following method was used to measure the effect on cytotoxicity and HCV replicon activity under conditions in which Huh-3-1 cells show reduced LCB1 expression. More specifically, cells were plated onto a 96-well plate at 3500 cells per well, and cultured overnight under 5% CO2 at 37° C. 1.75 μL of 2 μM siRNA was added to 23.3 μL of ECR buffer (buffer included in the RNAiFect Kit), this was stirred vigorously, and then 0.31 μL of RNAiFect transfection reagent was added. This was stirred gently at room temperature and then allowed to stand for ten minutes. siRNA was added to a final concentration of 35 nM, and this was cultured for four days. The effect on cytotoxicity was determined by adding 10 μL of Cell Counting Kit-8 (DOJINDO Laboratories Cat. No. 341-07761) to the medium, mixing three to four times using a pipette, and then allowing this to stand for one hour at 37° C. Absorbance was then measured at 450 nm using a microplate reader Emax (Molecular Devices). After incubation, the medium was exchanged for fresh medium, and the plate was subjected to the Steady-Glo Luciferase Assay System (Promega Cat. No. E2520). 100 μL of reagent was added to each well, mixed three to four times using a pipette, and then allowed to stand for five minutes. Luminescence was then measured using 1450 MicroBeta TRILUX (WALLAC) to determine the HCV replicon activity. IC50 (50% inhibitory concentration) of a pharmaceutical agent was calculated by subtracting the value obtained without adding the cells as the background value from all of the values, and then defining the level of inhibition without addition of the pharmaceutical agent as 0%.
(§3) A Cell Counting Kit-8 (DOJINDO Laboratories, Cat. No. 341-07761) was used for the cytotoxicity assays. More specifically, 10 μL of Cell Counting Kit-8 was added to the transparent plate, and this was warmed at 37° C. for 30 to 60 minutes. Using a 96-well plate reader, absorbance was measured at a wavelength of 450 nm with a reference wavelength of 630 nm. […]

HCV replicon = HCV replicon assay (luciferase); details: for IC50: firefly luciferase HCV replicon cells (Huh-3-1), cultured three days with compound; for HCV replication (replicon activity) versus viable cell count: HCV replicon cells, 72 hours; for HCV replicon activity compared with control siRNA-treated cells: Huh-3-1 cells, siRNA 35 nM, four days
Description: as §1, §2
First, to quantify the copy number of HCV-RNA, an RNA was constructed such that a firefly-derived luciferase gene was introduced into the HCV-RNA as a reporter gene. According to the method of Krieger et al. (J. Virol., 75: 4614), the luciferase gene was introduced immediately after the Internal Ribosome Entry Site (IRES) of the HCV gene, so that the gene was fused with the neomycin-resistance gene. […]

Huh-3-1 cells = assay: in vitro; details: for CC50: Huh-3-1 replicon cells, three days, Cell Counting Kit-8, read-out: Cytotoxicity CC50; for effect of siRNA treatment on cytotoxicity: Huh-3-1 cells, siRNA 35 nM, four days
Description: as §1, §2, §3

HCV protein (NS3) = assay: Western blot analysis of HCV protein synthesis in Huh-3-1 replicon cells; details: Hepatitis C virus, 72 h, read-out: concentration reducing expression of HCV proteins by 50%
Description: After 72 hours, the culture medium was discarded, phosphate buffered saline (PBS) was added, and the cells were dislodged by pipetting and then collected by centrifugation. A lysis solution for phosphate (50 mM Tris-HCl (pH 7.5), 0.5% Triton, 3 mM EDTA, 150 mM NaCl, 12 mM glycerophosphate, 50 mM NaF, 1 mM Na3VO4, 0.5 mM PMSF, and 0.5 mM aporotinin) was added to the cells, the cells were disrupted by pipetting, and the supernatant was collected by high-speed centrifugation. A protein assay was carried out using Dye Reagent (Nacalai Tesque #074-27) (Bovine Gamma Globulin, Standard solution, BIO-RAD #500-0005). […] Rainbow molecular weight markers (Amersham Bioscience #RPN756) were used as molecular weight size markers. […] Western analysis was performed using a rabbit antibody against NS3, derived from an HCV protein. Anti-actin rabbit antibody was used as an internal standard.

HCV RNA replication = assay: Northern blot analysis of HCV RNA replication in Huh-3-1 replicon cells; details: Hepatitis C virus, 72 h, read-out: concentration reducing replicon RNA by 50%
Description: Cells were collected 72 hours later, total RNAs were extracted, and this was subjected to Northern blot analysis using a neomycin resistance gene as a probe according to the NorthernMax Kit method, available from Ambion.
The probes were labeled with biotin using a BrightStar Psoralen-Biotin Kit (Ambion #9860G3).
1 μg of the total RNAs were electrophoresed on a 1% agarose gel, and then the RNAs were stained with ethidium bromide. The resulting gel was photographed and decolorized, then NorthernMax transfer buffer was used for two hours to transfer the RNAs to the transfer membrane. While the membrane was still wet, the RNAs were fixed to the transfer membrane using a UV crosslinker. The membrane was pretreated in ULTRAhyb for 30 minutes at 42° C. while being rotated in a Hybridization oven. This pretreatment solution was then discarded, and the membrane was treated by adding the biotinylated neomycin resistance gene and 10 mL of ULTRAhyb solution, and then shaking overnight at 42° C.
The ULTRAhyb solution was then discarded, and 15 mL of High Stringency Buffer pre-warmed to 42° C. was added to the membrane, and this was shaken for 30 minutes at 42° C. This same operation was then repeated once. The transfer membrane was washed using enough wash buffer to soak the membrane. The transfer membrane was shaken in a blocking buffer for 30 minutes, then this solution was discarded. […]

[1] = system: LCB1 (a subunit of the SPT heterodimer); assay: Inhibition of LCB1 protein expression by siRNAs, Western blotting; details: Huh-3-1 cells, siRNA 35 nM, four days
Description: 1.2×10^5 Huh-3-1 cells were plated onto a 6-well plate, and the cells were cultured overnight under 5% at 37° C. 2.3 μL of 20 μM siRNA was added to 100 μL of ECR buffer (a buffer included in the RNAiFect Kit), this was stirred vigorously, and after the addition of 4 μL of RNAiFect transfection reagent (Qiagen Cat. No. 301605) this was stirred gently at room temperature and allowed to stand for ten minutes. siRNA was added to a final concentration of 35 nM, and this was cultured for four days.
The cells were suspended in a cell lysis buffer (50 mM Tris-HCl (pH 7.5), 0.5% Triton, 3 mM EDTA, 150 mM NaCl, 12 mM glycerophosphate, 50 mM NaF, 1 mM Na3VO4, 0.5 mM PMSF, 0.5 mM aporotinin), and were allowed to stand on ice for ten minutes. This was centrifuged at 15,000×g for ten minutes, and the supernatant was collected. After quantifying the protein, the amount of protein in each sample was adjusted to 10 μg, and this was added to ¼ volume of 5×SDS sample buffer (125 mM Tris-HCl (pH 6.5), 25% Glycerol, 5% SDS, 0.25% BPB, 5% 2-Mercaptoethanol) and treated for five minutes at 98° C. […] The membranes were washed with 0.1% Tween 20/PBS, and then reacted for one minute with ECL, and the resulting signals were detected by autoradiography.

## CCCCCCCC(=O)CCCCCC/C=C/[C@H](C(=O)N[C@@H](Cc1ccc(C(F)(F)F)cc1)C(=O)O)[C@@](O)(CC(=O)O)C(=O)O [(18)]
In vitro
  CC50: > 1 µM
HCV replicon; Hepatitis C virus, 72 h
  IC50: 0.068 µM

## CCCCCCCC(=O)CCCCCC/C=C/[C@H](C(=O)N[C@@H](Cc1ccc(C#N)cc1)C(=O)O)[C@@](O)(CC(=O)O)C(=O)O [(19)]
In vitro
  CC50: > 1 µM
HCV replicon; Hepatitis C virus, 72 h
  IC50: 0.012 µM

## CCCCCCCC(=O)CCCCCC/C=C/[C@H](C(=O)N[C@@H](Cc1ccc(Cl)cc1)C(=O)O)[C@@](O)(CC(=O)O)C(=O)O [(20)]
In vitro
  CC50: > 1 µM
HCV replicon; Hepatitis C virus, 72 h
  IC50: 0.055 µM

## CCCCCCCC(=O)CCCCCC/C=C/[C@H](C(=O)N[C@@H](Cc1ccc([N+](=O)[O-])cc1)C(=O)O)[C@@](O)(CC(=O)O)C(=O)O [(21)]
In vitro
  CC50: > 1 µM
HCV replicon; Hepatitis C virus, 72 h
  IC50: 0.08 µM

## CCCCCCCC(=O)CCCCCC/C=C/[C@H](C(=O)N[C@@H](Cc1ccc(OCCCC)cc1)C(=O)O)[C@@](O)(CC(=O)O)C(=O)O [(26)]
In vitro
  CC50: > 1 µM

## CC(C)CCOc1ccc(C[C@H](NC(=O)[C@@H](/C=C/CCCCCCC(=O)CCCCC2CCCCC2)[C@](O)(CC(=O)O)C(=O)O)C(=O)O)cc1 [(38)]
Huh-3-1 cells
  CC50: > 1 µM
HCV replicon
  IC50: 0.024 µM

## CCCCCCCC(=O)CCCCCC/C=C/[C@H](C(=O)N[C@@H](Cc1ccc(OCC=C(C)C)cc1)C(=O)O)[C@@](O)(CC(=O)OC)C(=O)O [(41)]
In vitro
  CC50: > 1 µM

## CCCCCCCC(=O)CCCCCC/C=C/[C@H](C(=O)N[C@@H](Cc1ccc(OCC=C(C)C)cc1)C(=O)OC)[C@@](O)(CC(=O)OC)C(=O)O [(42)]
In vitro
  CC50: > 1 µM

## CCCCCCC(O)C(=O)CCCCCC/C=C/[C@H](C(=O)N[C@@H](Cc1ccc(O)cc1)C(=O)O)[C@@](O)(CC(=O)O)C(=O)O (stereo partly shown) [(43)]
In vitro
  CC50: > 1 µM

## CCCCCCCC(=O)CCCCCC/C=C/[C@H](C(=O)N[C@@H](Cc1c[nH]c2ccccc12)C(=O)O)[C@@](O)(CC(=O)O)C(=O)O [(44)]
In vitro
  CC50: > 1 µM

## CCCCCCC(O)C(=O)CCCCCC/C=C/[C@H](C(=O)N[C@@H](Cc1ccc(OCC=C(C)C)cc1)C(=O)O)[C@@](O)(CC(=O)O)C(=O)O (stereo partly shown) [(45)]
In vitro
  CC50: > 1 µM

## CCCCCCCC(CCCCCC/C=C/[C@H](C(=O)N[C@@H](Cc1ccc(OCC=C(C)C)cc1)C(=O)O)[C@@](O)(CC(=O)O)C(=O)O)=NOC [(54)]
In vitro
  CC50: > 50 µM

## CCCCCCCC(=O)CCCCCC/C=C/[C@H](C(=O)N[C@@H](Cc1ccc(OCCC(C)C)cc1)C(=O)O)[C@@](O)(CC(=O)O)C(=O)O [Compound (46)]
In vitro
  CC50: > 5 µM

## CCCCCCCC(O)CCCCCC/C=C/[C@H](C(=O)N[C@@H](Cc1ccc(OCC=C(C)C)cc1)C(=O)O)[C@@](O)(CC(=O)O)C(=O)O (stereo partly shown) [Compound (47)]
In vitro
  CC50: > 5 µM

## CCCCCCCC(=O)CCCCCC/C=C/[C@H](C(=O)N[C@@H](Cc1ccc(O)cc1)C(=O)O)[C@@](O)(CC(=O)O)C(=O)O [Compound (48)]
In vitro
  CC50: > 5 µM

## CCCCCCCC(=O)CCCCCCCC[C@H](C(=O)N[C@@H](Cc1ccc(O)cc1)C(=O)O)[C@@](O)(CC(=O)O)C(=O)O [Compound (49)]
In vitro
  CC50: > 50 µM

## CCCCCCCC(=O)CCCCCC/C=C/[C@H](C(=O)N[C@@H](Cc1ccc(OCC=C(C)C)cc1)C(N)=O)[C@@](O)(CC(N)=O)C(N)=O [Compound (50)]
In vitro
  CC50: > 5 µM

## CCCCCCCC(=O)CCCCCC/C=C/[C@H](C(=O)N[C@@H](Cc1ccc(OCC=C(C)C)cc1)C(=O)O)[C@@](O)(CC(=O)O)C(=O)O [Compound (51)]
Huh-3-1 cells
  CC50: > 5 µM
HCV replicon
  IC50: 0.072 µM

## CCCCCCCCCCCCCC/C=C/[C@H](C(=O)N[C@@H](Cc1ccc(OCC=C(C)C)cc1)C(=O)O)[C@@](O)(CC(=O)O)C(=O)O [Compound (52)]
In vitro
  CC50: > 50 µM
HCV replicon; Hepatitis C virus, 72 h
  IC50: 0.1 µM

## CCCCCCCCCCCC(=O)N[C@@H](CO)C[C@H](O)c1ccccc1 [HPA-12, reference compound]
HCV replicon
  HCV replication (replicon activity) versus viable cell count: suppressing the HCV replication at non-cytotoxic concentrations

## CCCC[C@@H](C)[C@@H](OC(=O)C[C@@H](CC(=O)O)C(=O)O)[C@H](C[C@@H](C)C[C@H](O)CCCC[C@@H](O)C[C@H](O)[C@H](C)N)OC(=O)C[C@@H](CC(=O)O)C(=O)O [fumonisin B1, reference compound]
HCV replicon
  HCV replication (replicon activity) versus viable cell count: suppressing the HCV replication at non-cytotoxic concentrations

## CCCCCCC(=O)CCCCCC/C=C/C[C@@H](O)[C@H](O)[C@@](N)(CO)C(=O)O [myriocin]
HCV protein (NS3)
  IC50: 0.001 to 0.01 µM
HCV replicon
  HCV replication (replicon activity) versus viable cell count: suppressing the HCV replication at non-cytotoxic concentrations
HCV RNA replication
  IC50: 0.001 to 0.01 µM

## si246: siRNA targeting LCB1, a subunit of the SPT heterodimer; SEQ ID NO: 1 (CAUCGUUUCAGGCCCUCCATT; chemistry not given here)
[1]
  LCB1 protein expression compared with control siRNA: Particularly strong inhibition of expression
Huh-3-1 cells
  effect of siRNA treatment on cytotoxicity: almost no effect
HCV replicon
  HCV replicon activity compared with control siRNA-treated cells: strong inhibitory effect

## si633: siRNA targeting LCB1, a subunit of the SPT heterodimer; SEQ ID NO: 2 (UGACAUGGCUGACCUCGAGTT; chemistry not given here)
[1]
  LCB1 protein expression compared with control siRNA: decrease the level of LCB1 protein expression
Huh-3-1 cells
  effect of siRNA treatment on cytotoxicity: almost no effect
HCV replicon
  HCV replicon activity compared with control siRNA-treated cells: significantly inhibited
